Results from US20250289822A1, “SOLID FORMS OF HIV INTEGRASE INHIBITORS” (priority 2024, published 2025).

Assay: Hygroscopicity by dynamic vapor sorption (DVS): water sorption/desorption as a function of relative humidity
Type: physicochemical
Protocol: Hygroscopicity was studied using dynamic vapor sorption (DVS, TA Q5000 SA, TA Instruments, New Castle, DE or DVS, DVS Intrinsic, Surface Measurement Systems, London, UK). […] The water sorption and desorption were studied as a function of relative humidity (RH) at 25° C. […] Data analysis was performed using Universal Analysis 2000 Version 4.7A (TA Instruments, New Castle, DE) for TA DVS runs and Microsoft Excel for SMS DVS runs.

SMILES: C[C@@H]1C=C[C@H](C)N2CN1n1cc(C(=O)NCc3c(F)cc(F)cc3F)c(=O)c(O)c1C2=O [Compound of Formula I, Form I, (1S,2R,5S)-8-hydroxy-2,5-dimethyl-7,9-dioxo-N-(2,4,6-trifluorobenzyl)-2,5,7,9-tetrahydro-1,6-methanopyrido[1,2-b][1,2,5]triazonine-10-carboxamide]
- solid form change after the DVS experiment (material checked post DVS experiment): not have changed form
- water absorbed (DVS) (up to 95% RH at 25° C.): about 0.15%
